Like-named read-outs stand apart in the source and are kept apart here.
Legend:
Experiment in all cases: selectivity profiling in a panel of 340 wild-type kinases (Reaction Biology Europe)
Type in all cases: binding
340 wild-type kinases [1] = target: T1, 340 wild-type kinases (Homo sapiens, UniProt O15264)
T1 construct: purchased Reaction Biology Europe
T1 sequence (O15264 1-365): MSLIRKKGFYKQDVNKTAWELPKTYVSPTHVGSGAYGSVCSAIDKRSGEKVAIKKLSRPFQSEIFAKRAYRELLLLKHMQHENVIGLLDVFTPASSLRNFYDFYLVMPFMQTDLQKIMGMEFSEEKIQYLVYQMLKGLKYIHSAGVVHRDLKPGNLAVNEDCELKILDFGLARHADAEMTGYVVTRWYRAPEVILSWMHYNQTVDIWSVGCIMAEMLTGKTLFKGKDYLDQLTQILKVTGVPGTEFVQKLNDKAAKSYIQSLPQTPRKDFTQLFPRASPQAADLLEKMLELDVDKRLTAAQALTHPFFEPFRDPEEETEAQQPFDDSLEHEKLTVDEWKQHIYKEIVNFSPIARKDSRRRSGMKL

340 wild-type kinases [2] = target: T2, 340 wild-type kinases (Homo sapiens, UniProt P05771)
T2 construct: purchased Reaction Biology Europe

340 wild-type kinases [3] = target: T3, 340 wild-type kinases (Homo sapiens, UniProt P07333)
T3 construct: purchased Reaction Biology Europe

340 wild-type kinases [4] = target: T4, 340 wild-type kinases (Homo sapiens, UniProt P17252)
T4 construct: purchased Reaction Biology Europe

340 wild-type kinases [5] = target: T5, 340 wild-type kinases (Homo sapiens, UniProt P29317)
T5 construct: purchased Reaction Biology Europe

340 wild-type kinases [6] = target: T6, 340 wild-type kinases (Homo sapiens, UniProt P37173)
T6 construct: purchased Reaction Biology Europe

340 wild-type kinases [7] = target: T7, 340 wild-type kinases (Homo sapiens, UniProt Q5TCX8)
T7 construct: purchased Reaction Biology Europe

340 wild-type kinases [8] = target: T8, 340 wild-type kinases (Homo sapiens, UniProt Q6IQ55)
T8 construct: purchased Reaction Biology Europe

340 wild-type kinases [9] = target: T9, 340 wild-type kinases (Homo sapiens, UniProt Q8IW41)
T9 construct: purchased Reaction Biology Europe
T9 sequence (Q8IW41 1-473): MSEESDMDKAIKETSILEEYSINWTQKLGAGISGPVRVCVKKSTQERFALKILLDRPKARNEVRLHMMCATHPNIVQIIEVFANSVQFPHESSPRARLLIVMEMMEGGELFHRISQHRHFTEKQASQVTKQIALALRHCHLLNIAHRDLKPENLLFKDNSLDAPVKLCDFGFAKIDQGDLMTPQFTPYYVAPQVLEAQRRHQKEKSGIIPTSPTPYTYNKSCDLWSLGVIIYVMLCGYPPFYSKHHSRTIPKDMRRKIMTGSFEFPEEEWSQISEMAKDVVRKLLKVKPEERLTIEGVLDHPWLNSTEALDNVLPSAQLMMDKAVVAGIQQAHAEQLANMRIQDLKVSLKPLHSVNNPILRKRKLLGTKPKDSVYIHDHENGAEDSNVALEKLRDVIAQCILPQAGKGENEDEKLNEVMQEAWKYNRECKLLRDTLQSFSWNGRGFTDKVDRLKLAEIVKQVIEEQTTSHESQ

340 wild-type kinases [10] = target: T10, 340 wild-type kinases (Homo sapiens, UniProt Q9BUB5)
T10 construct: purchased Reaction Biology Europe

340 wild-type kinases [11] = target: T11, 340 wild-type kinases (Homo sapiens, UniProt Q9NQU5)
T11 construct: purchased Reaction Biology Europe
T11 sequence (Q9NQU5 whole entry): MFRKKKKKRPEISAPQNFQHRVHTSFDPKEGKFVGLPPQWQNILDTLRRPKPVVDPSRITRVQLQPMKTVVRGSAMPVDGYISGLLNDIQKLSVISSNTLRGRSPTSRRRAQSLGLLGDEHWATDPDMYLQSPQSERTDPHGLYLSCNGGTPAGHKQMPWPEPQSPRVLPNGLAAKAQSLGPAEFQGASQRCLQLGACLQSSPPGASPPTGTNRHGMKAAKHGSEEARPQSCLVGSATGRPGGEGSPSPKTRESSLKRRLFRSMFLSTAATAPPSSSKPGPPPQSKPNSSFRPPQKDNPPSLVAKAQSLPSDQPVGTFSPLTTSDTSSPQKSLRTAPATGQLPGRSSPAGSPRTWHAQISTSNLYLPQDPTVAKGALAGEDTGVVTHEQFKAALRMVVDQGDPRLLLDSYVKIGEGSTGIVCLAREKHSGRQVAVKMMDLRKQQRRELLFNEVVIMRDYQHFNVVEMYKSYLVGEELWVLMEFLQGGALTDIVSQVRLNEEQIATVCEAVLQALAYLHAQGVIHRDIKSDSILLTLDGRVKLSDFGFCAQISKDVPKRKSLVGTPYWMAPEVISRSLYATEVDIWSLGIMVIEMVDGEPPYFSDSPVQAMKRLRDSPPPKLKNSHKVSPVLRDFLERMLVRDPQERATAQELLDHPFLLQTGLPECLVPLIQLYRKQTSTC

T3 sequence (P07333 20-972): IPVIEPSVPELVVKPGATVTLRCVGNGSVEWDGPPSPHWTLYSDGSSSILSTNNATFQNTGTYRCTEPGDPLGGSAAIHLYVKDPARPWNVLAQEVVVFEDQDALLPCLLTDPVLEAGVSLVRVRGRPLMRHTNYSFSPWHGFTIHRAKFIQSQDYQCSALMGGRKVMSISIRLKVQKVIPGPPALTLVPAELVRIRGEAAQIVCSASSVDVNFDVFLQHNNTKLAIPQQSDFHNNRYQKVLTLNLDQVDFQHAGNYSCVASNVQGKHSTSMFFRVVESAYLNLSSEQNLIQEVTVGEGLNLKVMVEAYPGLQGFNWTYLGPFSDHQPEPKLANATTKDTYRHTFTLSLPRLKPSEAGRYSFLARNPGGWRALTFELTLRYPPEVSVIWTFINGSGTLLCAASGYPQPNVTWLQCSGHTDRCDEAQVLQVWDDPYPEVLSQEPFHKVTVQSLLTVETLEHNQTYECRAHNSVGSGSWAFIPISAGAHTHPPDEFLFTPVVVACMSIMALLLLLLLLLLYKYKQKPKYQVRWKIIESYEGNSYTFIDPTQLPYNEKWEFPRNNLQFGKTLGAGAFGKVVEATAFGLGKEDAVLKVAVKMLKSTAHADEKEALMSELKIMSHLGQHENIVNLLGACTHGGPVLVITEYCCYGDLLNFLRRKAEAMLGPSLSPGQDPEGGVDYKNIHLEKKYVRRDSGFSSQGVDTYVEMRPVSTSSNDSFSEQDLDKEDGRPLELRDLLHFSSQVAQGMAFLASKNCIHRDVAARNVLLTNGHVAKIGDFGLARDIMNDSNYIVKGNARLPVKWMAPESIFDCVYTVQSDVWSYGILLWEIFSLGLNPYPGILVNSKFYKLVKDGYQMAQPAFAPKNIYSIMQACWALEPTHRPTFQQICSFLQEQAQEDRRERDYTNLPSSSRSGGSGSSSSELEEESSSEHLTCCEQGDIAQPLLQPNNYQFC
T8 sequence (Q6IQ55 whole entry): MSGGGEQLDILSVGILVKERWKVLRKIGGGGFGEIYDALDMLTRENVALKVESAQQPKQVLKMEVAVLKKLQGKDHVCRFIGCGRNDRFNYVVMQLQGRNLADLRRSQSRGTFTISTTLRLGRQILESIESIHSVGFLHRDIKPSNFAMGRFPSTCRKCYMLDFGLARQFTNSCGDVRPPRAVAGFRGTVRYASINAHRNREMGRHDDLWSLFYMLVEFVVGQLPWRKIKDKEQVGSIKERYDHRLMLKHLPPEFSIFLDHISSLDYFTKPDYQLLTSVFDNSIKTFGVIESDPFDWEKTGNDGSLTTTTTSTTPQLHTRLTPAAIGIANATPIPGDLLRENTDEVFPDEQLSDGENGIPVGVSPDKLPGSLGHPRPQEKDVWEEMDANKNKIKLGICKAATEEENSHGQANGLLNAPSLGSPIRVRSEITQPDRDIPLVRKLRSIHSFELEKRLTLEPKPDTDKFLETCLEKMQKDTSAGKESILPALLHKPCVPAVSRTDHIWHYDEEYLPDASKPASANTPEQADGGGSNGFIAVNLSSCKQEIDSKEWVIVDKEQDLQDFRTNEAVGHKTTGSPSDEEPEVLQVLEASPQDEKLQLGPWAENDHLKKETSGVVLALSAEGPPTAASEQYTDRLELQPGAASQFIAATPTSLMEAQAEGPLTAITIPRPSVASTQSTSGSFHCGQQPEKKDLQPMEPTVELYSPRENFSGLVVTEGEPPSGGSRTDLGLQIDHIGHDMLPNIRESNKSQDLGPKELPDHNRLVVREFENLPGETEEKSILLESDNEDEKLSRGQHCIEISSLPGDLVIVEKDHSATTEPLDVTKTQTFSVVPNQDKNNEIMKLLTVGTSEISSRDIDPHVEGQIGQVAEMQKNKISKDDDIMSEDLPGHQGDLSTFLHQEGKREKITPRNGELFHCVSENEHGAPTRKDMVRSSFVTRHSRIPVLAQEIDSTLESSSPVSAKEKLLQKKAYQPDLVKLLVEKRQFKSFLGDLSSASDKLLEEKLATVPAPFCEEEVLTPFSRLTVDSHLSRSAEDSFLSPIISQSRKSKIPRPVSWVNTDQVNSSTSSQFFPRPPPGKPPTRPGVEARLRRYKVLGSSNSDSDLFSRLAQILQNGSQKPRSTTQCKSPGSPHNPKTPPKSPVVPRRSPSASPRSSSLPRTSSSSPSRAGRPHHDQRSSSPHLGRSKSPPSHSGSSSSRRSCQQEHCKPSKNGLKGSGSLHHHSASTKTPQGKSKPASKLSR
T5 sequence (P29317 24-976): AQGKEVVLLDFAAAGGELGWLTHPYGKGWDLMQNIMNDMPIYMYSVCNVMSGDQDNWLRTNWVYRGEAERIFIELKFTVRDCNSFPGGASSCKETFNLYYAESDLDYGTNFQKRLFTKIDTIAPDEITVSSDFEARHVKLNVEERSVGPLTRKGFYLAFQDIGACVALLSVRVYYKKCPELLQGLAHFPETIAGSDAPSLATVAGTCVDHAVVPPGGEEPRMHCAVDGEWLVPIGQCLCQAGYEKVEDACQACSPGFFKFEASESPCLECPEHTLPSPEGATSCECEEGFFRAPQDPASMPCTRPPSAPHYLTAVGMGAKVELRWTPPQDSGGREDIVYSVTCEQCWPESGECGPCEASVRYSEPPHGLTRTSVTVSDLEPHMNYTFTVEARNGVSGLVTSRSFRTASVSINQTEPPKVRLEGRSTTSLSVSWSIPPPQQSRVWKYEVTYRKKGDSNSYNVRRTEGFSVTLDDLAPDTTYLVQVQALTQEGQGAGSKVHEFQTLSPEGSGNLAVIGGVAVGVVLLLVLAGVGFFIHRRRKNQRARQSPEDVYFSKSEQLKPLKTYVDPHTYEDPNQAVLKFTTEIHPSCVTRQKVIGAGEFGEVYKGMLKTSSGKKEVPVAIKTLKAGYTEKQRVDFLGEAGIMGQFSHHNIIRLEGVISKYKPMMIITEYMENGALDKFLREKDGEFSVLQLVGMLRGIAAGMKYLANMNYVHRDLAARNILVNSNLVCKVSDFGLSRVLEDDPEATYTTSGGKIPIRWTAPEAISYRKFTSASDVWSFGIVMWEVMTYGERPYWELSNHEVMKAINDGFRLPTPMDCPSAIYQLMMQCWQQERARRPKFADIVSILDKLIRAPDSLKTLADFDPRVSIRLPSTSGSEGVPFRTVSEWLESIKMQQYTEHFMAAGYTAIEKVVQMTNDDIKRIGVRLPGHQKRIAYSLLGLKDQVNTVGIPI
T6 sequence (P37173 23-567): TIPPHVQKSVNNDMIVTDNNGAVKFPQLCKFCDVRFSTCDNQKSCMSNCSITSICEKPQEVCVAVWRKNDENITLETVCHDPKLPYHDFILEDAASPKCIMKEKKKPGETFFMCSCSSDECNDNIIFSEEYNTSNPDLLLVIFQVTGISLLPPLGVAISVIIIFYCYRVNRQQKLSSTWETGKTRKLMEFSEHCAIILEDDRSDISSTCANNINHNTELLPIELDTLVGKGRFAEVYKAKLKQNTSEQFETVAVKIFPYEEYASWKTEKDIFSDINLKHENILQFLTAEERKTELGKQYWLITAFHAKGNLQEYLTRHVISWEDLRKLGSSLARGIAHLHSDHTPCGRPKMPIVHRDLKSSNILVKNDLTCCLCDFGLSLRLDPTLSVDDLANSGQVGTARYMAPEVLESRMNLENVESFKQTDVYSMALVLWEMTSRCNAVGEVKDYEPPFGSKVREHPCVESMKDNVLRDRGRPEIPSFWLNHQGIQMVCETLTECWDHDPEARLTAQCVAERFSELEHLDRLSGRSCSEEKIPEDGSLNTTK

`CNC(=O)c1ccc2c(c1)C(=O)c1ccc(Nc3ccc(F)c(NC(=O)C4CC4)c3)cc1CC2` [Compound 2015] gave a remaining activity at 0.2 µM (340 wild-type kinases [1]; 0.2 µM 2015, read-out: p38delta residual activity) of 101%, a remaining activity at 1 µM (340 wild-type kinases [1]; 1 µM 2015, read-out: p38delta residual activity) of 90.6% and a remaining activity at 0.2 µM (340 wild-type kinases [1]; p38delta, 0.2 µM, read-out: residual activity) of 101%. For the same compound, the remaining activity at 1 µM (340 wild-type kinases [1]; p38delta, 1 µM, read-out: residual activity) was 90.6%, the remaining activity at 0.2 µM (340 wild-type kinases [2]; 0.2 µM 2015, read-out: PKCbeta1 residual activity) was 109% and the remaining activity at 1 µM (340 wild-type kinases [2]; 1 µM 2015, read-out: PKCbeta1 residual activity) was 100%. It also gave a remaining activity at 0.2 µM (340 wild-type kinases [2]; PKCbeta1, 0.2 µM, read-out: residual activity) of 109%, a remaining activity at 1 µM (340 wild-type kinases [2]; PKCbeta1, 1 µM, read-out: residual activity) of 100% and a remaining activity at 0.2 µM (340 wild-type kinases [2]; PKCbeta2, 0.2 µM, read-out: residual activity) of 103%. It also gave a remaining activity at 1 µM (340 wild-type kinases [2]; PKCbeta2, 1 µM, read-out: residual activity) of 109%, a remaining activity at 0.2 µM (340 wild-type kinases [3]; 0.2 µM 2015, read-out: CSF1R residual activity) of 97.2% and a remaining activity at 1 µM (340 wild-type kinases [3]; 1 µM 2015, read-out: CSF1R residual activity) of 84%. It also gave a remaining activity at 0.2 µM (340 wild-type kinases [3]; CSF1R, 0.2 µM, read-out: residual activity) of 97.2%, a remaining activity at 1 µM (340 wild-type kinases [3]; CSF1R, 1 µM, read-out: residual activity) of 84% and a remaining activity at 0.2 µM (340 wild-type kinases [4]; 0.2 µM 2015, read-out: PKCalpha residual activity) of 118%. The remaining activity at 1 µM (340 wild-type kinases [4]; 1 µM 2015, read-out: PKCalpha residual activity) was 98.8%, the remaining activity at 0.2 µM (340 wild-type kinases [4]; PKCalpha, 0.2 µM, read-out: residual activity) was 118% and the remaining activity at 1 µM (340 wild-type kinases [4]; PKCalpha, 1 µM, read-out: residual activity) was 98.8%. It also gave a remaining activity at 0.2 µM (340 wild-type kinases [5]; 0.2 µM 2015, read-out: EPHA2 residual activity) of 98.4%, a remaining activity at 1 µM (340 wild-type kinases [5]; 1 µM 2015, read-out: EPHA2 residual activity) of 102% and a remaining activity at 0.2 µM (340 wild-type kinases [5]; EPHA2, 0.2 µM, read-out: residual activity) of 98.4%. It also gave a remaining activity at 1 µM (340 wild-type kinases [5]; EPHA2, 1 µM, read-out: residual activity) of 102%, a remaining activity at 0.2 µM (340 wild-type kinases [6]; 0.2 µM 2015, read-out: TGFBR2 residual activity) of 78.4% and a remaining activity at 1 µM (340 wild-type kinases [6]; 1 µM 2015, read-out: TGFBR2 residual activity) of 76.8%. The remaining activity at 0.2 µM (340 wild-type kinases [6]; TGFBR2, 0.2 µM, read-out: residual activity) was 78.3%, the remaining activity at 1 µM (340 wild-type kinases [6]; TGFBR2, 1 µM, read-out: residual activity) was 76.8% and the remaining activity at 0.2 µM (340 wild-type kinases [7]; 0.2 µM 2015, read-out: MLK4 residual activity) was 96.4%. It also gave a remaining activity at 1 µM (340 wild-type kinases [7]; 1 µM 2015, read-out: MLK4 residual activity) of 87.1%, a remaining activity at 0.2 µM (340 wild-type kinases [7]; MLK4, 0.2 µM, read-out: residual activity) of 96.4% and a remaining activity at 1 µM (340 wild-type kinases [7]; MLK4, 1 µM, read-out: residual activity) of 87.1%. The remaining activity at 0.2 µM (340 wild-type kinases [8]; 0.2 µM 2015, read-out: TTBK2 residual activity) was 115%, the remaining activity at 1 µM (340 wild-type kinases [8]; 1 µM 2015, read-out: TTBK2 residual activity) was 118% and the remaining activity at 0.2 µM (340 wild-type kinases [8]; TTBK2, 0.2 µM, read-out: residual activity) was 115%. For the same compound, the remaining activity at 1 µM (340 wild-type kinases [8]; TTBK2, 1 µM, read-out: residual activity) was 118%, the remaining activity at 0.2 µM (340 wild-type kinases [9]; 0.2 µM 2015, read-out: MAPKAPK5 residual activity) was 123% and the remaining activity at 1 µM (340 wild-type kinases [9]; 1 µM 2015, read-out: MAPKAPK5 residual activity) was 109%. The remaining activity at 0.2 µM (340 wild-type kinases [9]; MAPKAPK5, 0.2 µM, read-out: residual activity) was 123%, the remaining activity at 1 µM (340 wild-type kinases [9]; MAPKAPK5, 1 µM, read-out: residual activity) was 109% and the remaining activity at 0.2 µM (340 wild-type kinases [10]; 0.2 µM 2015, read-out: MKNK1 residual activity) was 98.2%. The remaining activity at 1 µM (340 wild-type kinases [10]; 1 µM 2015, read-out: MKNK1 residual activity) was 91.6%, the remaining activity at 0.2 µM (340 wild-type kinases [10]; MKNK1, 0.2 µM, read-out: residual activity) was 98.2% and the remaining activity at 1 µM (340 wild-type kinases [10]; MKNK1, 1 µM, read-out: residual activity) was 91.6%. For the same compound, the remaining activity at 0.2 µM (340 wild-type kinases [11]; 0.2 µM 2015, read-out: PAK6 residual activity) was 98%, the remaining activity at 1 µM (340 wild-type kinases [11]; 1 µM 2015, read-out: PAK6 residual activity) was 89.3% and the remaining activity at 0.2 µM (340 wild-type kinases [11]; PAK6, 0.2 µM, read-out: residual activity) was 98%. For the same compound, the remaining activity at 1 µM (340 wild-type kinases [11]; PAK6, 1 µM, read-out: residual activity) was 89.3%.

— article PMC11864979, “First-in-class ultralong-target-residence-time p38α inhibitors as a mitosis-targeted therapy for colorectal cancer” (Nature Cancer, 2025)
